Here are results for seven molecules from article PMC8704606, “The Artemiside-Artemisox-Artemisone-M1 Tetrad: Efficacies against Blood Stage P. falciparum Parasites, DMPK Properties, and the Case for Artemiside” (Pharmaceutics, 2021).

In series [1] the test system is asexual blood stages of Pf W2 (drug resistant). On the set-up: method as in PMID 29866868, PMID 31998692. As to conditions: cited from earlier work.
Series [2] has as its system early-stage (EG) Pf NF54 gametocytes. Further details: method as in PMID 29866868. As to conditions: early-stage gametocytes >95% stages II-III; 48 h incubation; ± SEM; cited from earlier work.
Series [3] has as its system asexual blood stages of Pf K1 (drug resistant). Further details: method as in PMID 29866868, PMID 31998692. As to conditions: cited from earlier work; for IC50: asexual blood stage Pf K1, multidrug resistant, SYBR Green I, ± SEM.
On the set-up of series [4]: method as in PMID 34097488. As to conditions: cited from earlier work.
Series [5] deals with asexual blood stages of Pf NF54 (drug sensitive). Further details: method as in PMID 29866868, PMID 31998692. As to conditions: asexual blood stage Pf NF54, CQ sensitive; SYBR Green I; ± SEM; cited from earlier work.
Series [6] has as its system late-stage (LG) Pf NF54 gametocytes. On the set-up: method as in PMID 29866868. As to conditions: late-stage gametocytes >90% stages IV-V; 48 h incubation; ± SEM; cited from earlier work.
Series [7] deals with P. berghei sporozoites. As to conditions: cited from earlier work; for Maximum inhibition % P. berghei sporozoites: ref S3; for IC50: luciferase-expressing P. berghei ANKA GFP-Luc-SMcon sporozoites in HepG2 cells, 48 h, ± SD, ref S3 (7).
For series [8], the system named is type II tachyzoites (PRU-Luc-GFP). As to conditions: sc 10 mg/kg/d for 8 days; cited from earlier work.
Series [9] has as its system HepG2. As to conditions: cited from earlier work; for SI = EC50 HepG2/IC50 P. berghei sporozoites: ref S3.
Series [10] relates to 7G8 (CQ resistant). Further details: method as in ref S2. As to conditions: [3H]-hypoxanthine assay; ref S2; read-out: Antimalarial activities IC50 7G8; cited from earlier work.
The subject of series [11] is TM-C2B. Further details: method as in ref S2. As to conditions: [3H]-hypoxanthine assay; ref S2; read-out: Antimalarial activities IC50 TM-C2B; cited from earlier work.
The subject of series [12] is TM93-C1088 (atovaquone and CQ resistant). Further details: method as in ref S2. As to conditions: [3H]-hypoxanthine assay; ref S2; read-out: Antimalarial activities IC50 TM93-C1088; cited from earlier work.
For series [13], the system named is TM91-C235 (CQ and MFQ resistant). On the set-up: method as in ref S2. As to conditions: [3H]-hypoxanthine assay; ref S2; read-out: Antimalarial activities IC50 TM91-C235; cited from earlier work.
A short description of series [14]: Cytotoxicity (LDH assay) against HepG2 cells. The format is cell-based. As to conditions: human. As to the method:
Cytotoxicity against mammalian hepatocellular carcinoma cells (HepG2 cells) was determined using the lactate dehydrogenase assay (LDH, Biovision Inc., Milpitas, CA, USA). […] Compound working solutions were prepared from 10 mM stock solutions (100% DMSO) in complete DMEM to a final DMSO (Sigma-Aldrich) conc. of <0.1% (vol/vol). […] Data analysis was performed using GraphPad Prism (version 6) software.

Series [15] deals with W2 (CQ resistant). On the set-up: method as in ref S2. As to conditions: [3H]-hypoxanthine assay; ref S2; read-out: Antimalarial activities IC50 W2; cited from earlier work.
The test system of series [16] is D6 (CQ sensitive). On the set-up: method as in ref S2. As to conditions: [3H]-hypoxanthine assay; ref S2; read-out: Antimalarial activities IC50 D6; cited from earlier work.

Molecules are shown by their SMILES. Where two headings read alike, the source gives them in different places.

Take `CO[C@H]1O[C@@H]2O[C@@]3(C)CC[C@H]4[C@H](C)CC[C@@H]([C@H]1C)[C@@]24OO3` [Artemether 3, Artemether]: the IC50 (in general, the concentration that inhibits the measured activity by half) was 7 ± 1 nM in series [1] (asexual blood stage Pf W2, multidrug resistant, SYBR Green I, ± SEM); 37.7 ± 2 nM in [2]; 9 ± 2 nM in [3]; 1.86 ± 0.17 nM in [5]; 136 ± 85.9 nM in [6]; more than 104 nM in series [7]. In addition, the concentration for half-maximal inhibition (IC50) in series [7] (listed as artemether 3) was more than 10000 nM. In [1], the “RI = IC50 W2/IC50 NF54” value was 3.8. Besides, the “RI (resistance index) = IC50 K1/IC50 NF54” value in series [3] was 4.8. The “F% (oral bioavailability)” value in [4] was 2%. In addition, the peak concentration (Cmax) (usually the maximum level reached in the sampled fluid or tissue) in series [4] (oral administration, same dose, same murine model) is 600 nM. Further, in [7] (at 10 µM), the “Maximum inhibition % P. berghei sporozoites” value was 49.4%.

For the molecule `C[C@@H]1CC[C@H]2[C@@H](C)C(=O)O[C@@H]3O[C@@]4(C)CC[C@@H]1[C@]32OO4` [Artemisinin 1, Artemisinin, reference compound], the “mice surviving the infection, acute phase” value in [8] is given as “all mice treated with artemisinin succumbed to infection”.

As to `O=C1C(O)=C([C@H]2CC[C@H](c3ccc(Cl)cc3)CC2)C(=O)c2ccccc21` [Atovaquone], the EC50 – broadly, the concentration needed to bring the measured effect to its halfway point – in series [9] was more than 250 nM. For the same molecule, the “SI = EC50 HepG2/IC50 P. berghei sporozoites” value in series [9] is recorded as more than 100. Moreover, the IC50 was 3.1 ± 0.9 nM in series [10]; 31800 nM in series [11]; 18800 nM in [12]; 2.2 ± 0.7 nM in [13]; 2.52 ± 0.997 nM in [7]. Also, in series [7] (at 0.5 µM), the “Maximum inhibition % P. berghei sporozoites” value is 94.85±2.76%.

On to `CCN(CC)CCCC(C)Nc1ccnc2cc(Cl)ccc12` (centres unmarked) [Chloroquine], for which the concentration for half-maximal inhibition (IC50) in [3] is 154 ± 14 nM; in series [10], 84 ± 18 nM; in series [11], 95 ± 23 nM; in [12], 360 ± 38 nM; in series [15] it was 195 ± 70 nM; in [5], 10 ± 3 nM. For the same molecule, the concentration for half-maximal inhibition (IC50) is 16 ± 2 nM in series [16] and 70 ± 12 nM in series [13]. This molecule also yielded a concentration for half-maximal inhibition (IC50) at 24 h in [14] of 58400 nM.

Take `OC(c1cc(C(F)(F)F)nc2c(C(F)(F)F)cccc12)C1CCCCN1` (centres unmarked) [Mefloquine]: the IC50 in [10] is 5.4 ± 1.7 nM; in series [11] it was 130 ± 51 nM; in series [12], 16 ± 5 nM; in series [13], 107 ± 41 nM.

On to `CN(C)c1ccc2nc3ccc(=[N+](C)C)cc-3sc2c1` [Methylene Blue], for which the values for the half-inhibitory concentration (IC50) in [2], in series [5] and in series [6] were 95 ± 11.3 nM, 5 ± 0.8 nM and 143 ± 16.7 nM, respectively.

Consider `COc1ccc(C[C@H](N)C(=O)N[C@H]2[C@@H](O)[C@H](n3cnc4c(N(C)C)ncnc43)O[C@@H]2CO)cc1` [Puromycin, reference compound], for which, in series [9], the EC50 is 117 nM and the “SI = EC50 HepG2/IC50 P. berghei sporozoites” value is listed as 5.15. Besides, the “Maximum inhibition % P. berghei sporozoites” value in series [7] (at 5 µM) is 110±4.24%. The 50% inhibitory concentration (IC50) in series [7] is 22.7 ± 4.53 nM.
